Values joined by “and” are separate entries in the source; they are usually repeats but may differ in a detail not shown here. Equal entries are not always repeated.
What was measured:
CSF1R = CSF1R (Homo sapiens (Human), UniProt P07333); format: biochemical; details: Kinase Profiler
MDR1 (P-gp) = MDR1 (P-gp) (Homo sapiens (Human), UniProt P08183); assay: MDR1-MDCK effective efflux assay; details: dog; for efflux ratio: Table 5.1B
[1] = target: MDR1 pump (P-gp), MDCK-MDR1 cells (Homo sapiens (Human), UniProt P08183); assay: MDR1-MDCK effective efflux assay; details: Table 5.1B
[2] = Human plasma-protein binding
[3] = Metabolite profile in hepatocytes / in vivo
Excerpt: Metabolites are identified using high-resolution mass spectrometry.

PANC1 cells = assay: TNF-sensitised cell viability assay (CellTiter-Glo); details: Homo sapiens, PANC-1, read-out: PANC IC50 (at 100 ng/ml rHuNF)
HCK = HCK (Homo sapiens (Human), UniProt P08631); format: biochemical; details: Kinase Profiler
SIK3 = SIK3 (Homo sapiens (Human), UniProt Q9Y2K2); details: fold of the value of compound C7 (C7 = 1×)
[4] = tested on: NFKB activity in reporter MC38 cells; assay: NFKB luciferase reporter activity in MC38 cells; format: cell-based, murine; details: Mus musculus, MC-38, +10 ng/ml rHuTNF for 8 h
Protocol: FIG. 28: depicts: (A) and (B) effect of compound E9 on NFKB activity. […] Luciferase activity was normalised to cells treated with rHuTNF without inhibitor (DMSO only). Y-axis=NFKB activity (%). X-axis=compound concentration (nM); Bar “A” viability without compound and without TNF; bar “B” viability without compound and with 10 ng/ml TNF; and (C) Effect of compound E9 on HDAC4 phosphorylation. […] Whole cell lysates were analysed in a Meso Scale Discovery (MSD) assay with anti-HDAC4 capture and anti-pHDAC4 detection antibodies. HDAC4 phosphorylation was normalized to untreated PANC-1 cells (DMSO only). Y-axis=HDAC4 phosphorylation (%). X-axis=Compound concentration (nM).

in vitro = details: mouse, microsomes
[5] = tested on: EMT6 breast cancer tumours; assay: EMT6 immune-excluded (cold) tumour syngeneic mouse model; format: in vivo, BALB/c mice; set-up: key to Tukey's multiple comparisons test, Significance summary: ns = not significant; details: for Tukey's multiple comparisons test, Significance summary: EMT6 model; for tumour growth inhibition (TGI): EMT6
SIK2 = SIK2 (Homo sapiens (Human), UniProt Q9H0K1); assay: SIK2 kinase inhibition (IC50); details: read-out: Kinase: IC50 (nM) SIK2
[6] = tested on: SIK3 WT and KO MC38 clones; assay: TNF-mediated killing of SIK3 wildtype vs SIK3 knockout MC38 clones (CTG); format: cell-based, mouse; details: sub-optimal TNF (<10 ng/ml), 72 h
Protocol: The assay was performed as follows: MC38 SIK3 KO clones were generated using CRISPR. Cells were transfected with RNP complexes (Cas9+gRNA) containing gRNAS targeting SIK3 or non-targeting sequences (control). […] Subsequently, single cell clones were generated by limiting dilution. CRISPR-derived mutations in single clones were detected by next-generation sequencing and analysed using CRISPResso. Knockout and wildtype clones were selected and plated overnight. […] Cells treated with different concentrations of inhibitor but without TNF served as no TNF control. Cell viability was measured by CTG assay.

[7] = tested on: MC38 colorectal carcinoma tumours; assay: MC38 syngeneic mouse tumour model (Example 8.1); details: MC38; for Body weight increase (%) / Non-treatment related death / Tumour growth inhibition (%): BID po

Sequence of CSF1R (P07333 20-972 limits assumed): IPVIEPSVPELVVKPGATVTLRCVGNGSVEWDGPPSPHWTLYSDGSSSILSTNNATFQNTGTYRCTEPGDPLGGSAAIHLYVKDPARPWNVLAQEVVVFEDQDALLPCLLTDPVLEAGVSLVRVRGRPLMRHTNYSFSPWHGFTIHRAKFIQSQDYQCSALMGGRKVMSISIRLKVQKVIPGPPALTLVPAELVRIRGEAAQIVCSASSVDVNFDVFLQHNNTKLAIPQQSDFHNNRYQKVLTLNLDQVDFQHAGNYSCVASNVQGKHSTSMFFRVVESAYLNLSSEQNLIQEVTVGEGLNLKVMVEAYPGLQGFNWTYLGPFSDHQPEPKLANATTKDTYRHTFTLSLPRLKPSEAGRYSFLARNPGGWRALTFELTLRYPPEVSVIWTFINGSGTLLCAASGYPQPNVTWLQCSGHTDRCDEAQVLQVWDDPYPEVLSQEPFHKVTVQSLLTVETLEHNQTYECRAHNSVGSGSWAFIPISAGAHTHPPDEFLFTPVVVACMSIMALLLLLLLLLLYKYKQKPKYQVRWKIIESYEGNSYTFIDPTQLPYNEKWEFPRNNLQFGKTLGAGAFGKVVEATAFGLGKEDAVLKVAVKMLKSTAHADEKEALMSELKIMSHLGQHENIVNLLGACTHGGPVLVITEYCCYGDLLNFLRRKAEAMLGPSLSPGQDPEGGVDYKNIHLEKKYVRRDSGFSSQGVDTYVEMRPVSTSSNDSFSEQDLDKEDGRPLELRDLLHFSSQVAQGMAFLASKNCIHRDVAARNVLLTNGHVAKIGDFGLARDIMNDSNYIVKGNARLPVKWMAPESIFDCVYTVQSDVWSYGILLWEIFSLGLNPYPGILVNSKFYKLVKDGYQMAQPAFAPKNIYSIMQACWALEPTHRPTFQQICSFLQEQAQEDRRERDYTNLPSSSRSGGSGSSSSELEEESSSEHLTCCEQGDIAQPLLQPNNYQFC

SMILES: Cc1nc(Nc2ncc(C(=O)Nc3c(CF)csc3Cl)s2)cc(N2CCN(C)CC2)n1 [Compound E9, N-(2-chloro-4-(fluoromethyl)thiophen-3-yl)-2-((2-methyl-6-(4-methylpiperazin-1-yl)pyrimidin-4-yl)amino)thiazole-5-carboxamide]
- CSF1R residual activity (CSF1R): less than 1%
- Papp (MDR1 (P-gp); MDCK-MDR1): 5 ×10⁻⁶ cm/s
- efflux ratio (MDR1 (P-gp); MDCK-MDR1, MDCK-MDR1 cells, Mean Efflux Ratio (MDR1)): 20 to 30
- efflux ratio (MDR1 (P-gp); MDCK-MDR1, P-gP driven efflux ratio (MDR1/wt)): 27
- MDCK-MDR1 cells, Mean Efflux Ratio (MDR1) [1]: 26
- Human plasma-protein binding, Percentage unbound (%) ([2]; Table 5.1A): 1%
- recovery at 4 h ([2]; human, plasma): 92%
- quinone-imine reactive metabolite [3]: not observed
- IC50 (PANC1 cells): < 100 nM
- HCK residual activity (HCK): less than 1%
- SIK3 IC50 (nM), relative to C7 (SIK3): 0.3×
- EC50 [4]: 389 nM
- half-life (in vitro): 9 min
- microsomal CLint (in vitro): 158 µL/min/mg
- Tukey's multiple comparisons test, Significance summary ([5]; E9 25 mg/kg bid vs. E9 […] bid): ns
- Tukey's multiple comparisons test, Significance summary ([5]; E9 25 mg/kg qd vs. E9 5 mg/kg bid): ns
- tumour growth inhibition (TGI) ([5]; 5 mg/kg BID): 24% and 25%
- tumour growth inhibition (TGI) ([5]; 25 mg/kg BID): 37%
- tumour growth inhibition (TGI) ([5]; 25 mg/kg QD): 9%
- Tukey's multiple comparisons test, Significance summary ([5]; Vehicle vs. E9 25 mg/kg qd): ns
- IC50 (SIK2): < 10 nM
- TNF-mediated killing in SIK3 WT vs KO MC38 clones [6]: induced TNF-mediated killing only in SIK3 WT clones
- Body weight increase (%) ([7]; 25 mg/Kg): 16.8%
- Non-treatment related death ([7]; 25 mg/Kg): 2/16
- Tumour growth inhibition (%) ([7]; 25 mg/Kg): 74%
- average TGI ([7]; 25 mg/kg BID): 72%
- Body weight increase (%) ([7]; 50 mg/Kg): 18.7%
- Non-treatment related death ([7]; 50 mg/Kg): 3/16
- Tumour growth inhibition (%) ([7]; 50 mg/Kg): 69%

Source: patent publication US20230348453A1, “HALOGENATED-HETEROARYL AND OTHER HETEROCYCLIC KINASE INHIBITORS, AND USES THEREOF” (iOmx Therapeutics AG, priority 2020, published 2023)
